A short description of data set [1]: physchem. The following applies: octanol/water.
A short description of data set [2]: physchem.
Data set [3] is described as follows: in vivo. As to conditions: Sprague-Dawley, rat, iv, 2 mg/kg.
The nature of data set [4]: in vivo. As to conditions: Sprague-Dawley, rat, po, 5 mg/kg.
A short description of data set [5]: in vivo. The following applies: Sprague-Dawley, rat, po, 5 mg/kg. The source holds these as a separate data set.
The nature of data set [6]: in vivo. The following applies: Sprague-Dawley, rat, po, 5 mg/kg. The source holds these as a separate data set.
The conditions of data set [7]: Sprague-Dawley, rat, in vivo, iv, 2 mg/kg, 24 h.
Data set [8] is described as follows: in vivo. As to conditions: Sprague-Dawley, rat, po, 5 mg/kg. This is another data set of the same source.

In general, logP refers to a log measure of how a compound divides between an organic and an aqueous phase. For orientation: pKa means the negative logarithm of the acid dissociation constant. Read a low pKa as a stronger acid or weaker base. What is called Cmax is the highest concentration seen after dosing. One may read the AUC(0-t) as exposure summed from dosing to a finite time, without extrapolation to infinity. What is called half-life is the time in which the quantity being followed falls by half. Read a high half-life as slow loss. A word on the bioavailability: it is dose-corrected exposure relative to a reference, in per cent.

With `COc1ccc(S(=O)(=O)n2cc(C(F)F)c3cc(F)ccc32)cc1N1CCNCC1`, the logP in “physchem [1]” turned out to be 3.31. In “physchem [2]”, this molecule returned a pKa of 8.78.

As to `COc1ccc(S(=O)(=O)n2cc(C(F)F)c3ccc(F)cc32)cc1N1CCNCC1`, the Cmax at 24 h in the data set “in vivo [3]” came out at 77 ng/mL; in “in vivo [6]”, 24 ng/mL. In the data set “physchem [1]”, this molecule had a logP of 3.39. Also, in “in vivo [4]”, the AUC(0-t) at 24 h turned out to be 102 ng·h/mL. Moreover, the half-life at 24 h in “in vivo [5]” was 3.4 h. In addition, the pKa in the data set “physchem [2]” turned out to be 8.62. Besides, the AUCt in data set [7] turned out to be 290 ng·h/mL. The bioavailability at 24 h in the data set “in vivo [8]” was 14.4%.

As to `COc1ccc(S(=O)(=O)n2ccc3ccc(Br)cc32)cc1N1CCNCC1`, the maximum concentration (Cmax) at 24 h in the data set “in vivo [3]” amounted to 133 ng/mL; in “in vivo [6]” it was 10 ng/mL. Moreover, the logP in “physchem [1]” was found to be 3.73. The AUC(0-t) at 24 h in “in vivo [4]” was found to be 32 ng·h/mL. The half-life at 24 h in the data set “in vivo [5]” is 2.1 h. The same molecule gave a pKa in “physchem [2]” of 8.68. The molecule further registered an AUCt in data set [7] of 153 ng·h/mL. The same molecule returned a bioavailability at 24 h in “in vivo [8]” of 9.35%.

`COc1ccc(S(=O)(=O)n2cc(C)c3ccc(F)cc32)cc1N1CCNCC1` had a lipophilicity (logP) in “physchem [1]” of 3.3. Further, in “physchem [2]”, the pKa is 8.78.

For the molecule `COc1ccc(S(=O)(=O)n2cc(C(F)F)c3cc(Cl)ccc32)cc1N1CCNCC1`, the logP in the data set “physchem [1]” came to 3.85. In addition, the pKa in “physchem [2]” is 8.66.

With `COc1ccc(S(=O)(=O)n2cc(C)c3cc(F)ccc32)cc1N1CCNCC1`, the logP in the data set “physchem [1]” came out at 3.22.

The values are drawn from ChEMBL document CHEMBL5113494, “Novel difluoromethyl-containing 1-((4-methoxy-3-(piperazin-1-yl)phenyl)sulfonyl)-1H-indole scaffold as potent 5-HT6R antagonists: Design, synthesis, biological evaluation, and early in vivo cognition-enhancing studies” (Bioorg Med Chem, 2022).
